The target of this assay is Human immunodeficiency virus type 1 reverse transcriptase (Human immunodeficiency virus 1, UniProt Q72547). Put plainly: Inhibitory activity against HIV-1 reverse transcriptase.

pIC50: −log10 of the molar value. Bounds are passed on as bounds.

For orientation: pIC50 means the negative decadic logarithm of the IC50, by convention in mol/L. Higher therefore signals a small IC50. In the case of `CC(=O)Nc1ccc2c(c1)C(C#CC(C)C)(C(F)(F)F)OC(=O)N2` (stereo unspecified), the pIC50 was greater than 5.70.

Source of the values: ChEMBL document CHEMBL1138728, “QSAR modelling of HIV-1 reverse transcriptase inhibition by benzoxazinones using a combination of P_VSA and pharmacophore feature descriptors” (Bioorg Med Chem Lett, 2004).
